Read-outs that look alike come from different tables or passages of the source.
Columns and labels:
[1] = Plasma exposure of allopregnanolone from human SE study; format: in vivo; conditions: by Day 2; continuous IV infusion 86 μg/kg/h; single SRSE patient
Method: FIG. 2. Plasma exposure of allopregnanolone from human SE study. Plasma concentration profile over time of allopregnanolone in a single patient. The patient was dosed allopregnanolone (ALLO) at 1.5 mg/mL in 6% hydroxypropyl-β-cyclodextrin in 0.9% sodium chloride intravenously for 5 days (120 h). The infusion rate was 86 μg/kg/h. The patient was dosed 5.6 mg/h of allopregnanolone at 3.8 mL/h. Plasma concentration was analyzed 2 hours prior to the start of infusion and then 52, 76, 100, 124, and 148 hours post-infusion.
(§1) At the time that allopregnanolone was started, the patient was still in a pentobarbital-induced coma as well as receiving lacosamide, phenobarbital, clonazepam, and levetiracetam. The patient was started on allopregnanolone at a continuous infusion rate of 86 μg/kg/h for 5 days, after which the allopregnanolone was rapidly tapered and discontinued over a 24-hour period. Plasma samples were drawn at 5 h, 29 h, 53 h, 77 h, 101 h, 125 h, 149 h, and 173 h and are shown on FIG. 2. The plasma level rose and by Day 2 had achieved the target level of 150 nmoles/L. The pentobarbital was tapered and discontinued over the first 36 hours of allopregnanolone therapy. […] They continued to improve and was conversant, making jokes, and in a rehabilitation facility as of April 2013.

patient in SRSE = assay: Treatment of one patient in super-refractory status epilepticus (SRSE) with allopregnanolone infusion; format: in vivo, human
Source text: A physician at the Massachusetts General Hospital, Boston, Mass. treated one patient in SRSE with allopregnanolone in a hydroxyl-propyl beta cyclodextrin formulation. The patient was a previously-healthy, person, college graduate who was started on allopregnanolone on their 92nd day of SRSE.
During their hospital course, the patient had previously been treated with propofol, midazolam, lacosamide, phenytoin, phenobarbital, ketamine, clonazepam, levetiracetam, valproate, pentobarbital, topiramate, steroids, pyridoxine, coq-10, lidocaine, electroconvulsive therapy (ECT), bromides, hypothermia, a ketogenic diet, and acupuncture.
as §1

[2] = test system: patients with status epilepticus; conditions: cited from earlier work

CC(=O)[C@H]1CC[C@H]2[C@@H]3CC[C@H]4C[C@H](O)CC[C@]4(C)[C@H]3CC[C@]12C [allopregnanolone, 3 alpha-hydroxy-5 alpha-pregnan-20-one]
plasma level [1]: 150 nM
adverse events attributed to allopregnanolone (patient in SRSE; 86 μg/kg/h for 5 days, then taper over 24 hours): no adverse events
EEG (patient in SRSE; 36-hour time point, patient entirely weaned from pentobarbital, infusion 86 μg/kg/h): had begun to normalize
clinical state of the patient (patient in SRSE; at 72 hours, infusion 86 μg/kg/h): awake and followed simple midline commands

O=C1Nc2ccc(Cl)cc2C(c2ccccc2Cl)=NC1O (stereo not drawn) [lorazepam]
patients who did not respond to first line treatment ([2]; intravenous (IV) treatment): 36.6%

Cc1ncc2n1-c1ccc(Cl)cc1C(c1ccccc1F)=NC2 [midazolam]
patients who did not respond to first line treatment ([2]; intramuscular (IM) treatment): 26.6%

Reference: patent publication US12048706B2, “Methods of treating epilepsy or status epilepticus” (Sage Therapeutics, Inc., priority 2012, dated 2024)
